The values that follow come from patent publication US20230020329A1, “Annelated 9-hydroxy-1,8-dioxo-1,3,4,8-tetrahydro-2H-pyrido[1,2-a]pyrazine-7-carboxamides as HIV integrase inhibitors, methods of preparation and application thereof” (priority 2019, published 2023).

In brackets after ≈: the same amount, converted by molar mass. Read-outs that look alike come from different tables or passages of the source.

In data set [1] the test system is HIV-1 (NL4.3 strain) carrying the GFP reporter gene (NL4.3-GFP). The experiment in a line: HIV-1 NL4.3-GFP infection of SupT1 cells. It counts as cell-based. The conditions noted are these: Human immunodeficiency virus 1, SUP-T1, read-out: Inhibitory activity (EC50) of HIV-1 (NL4.3 strain) carrying the GFP reporter gene. As for the experimental part: 6. Inhibitory Activity of HIV-1 (NL4.3 Strain) Carrying the GFP Reporter Gene (NL4.3-GFP) in the SuPT1 Cell Line.
The evaluation was done by RetroVirox Inc. (San Diego, Calif., USA). SupT1 cells were infected with the HIV NL4.3 strain carrying the green fluorescent protein gene (NL4.3-GFP). The virus sample was produced by transfection of 293T cells with proviral DNA. The sample was frozen 48 hours after transfection and stored until use. To enhance the efficiency of infection, a suspension of SupT1 cells was precipitated from the infectious mixture by centrifugation. Test substances were added to the cells immediately before adding the virus. After 2 hours of incubation, the infectious mixture was replaced with a fresh culture medium containing test samples. The effectiveness of the infection was determined after 45 hours by counting the percentage of fluorescent cells in comparison with uninfected cell cultures. The cytotoxicity of the test compounds was determined in parallel on the same, but not infected, SupT1 cell line using the XTT reagent. Serial tenfold dilutions of the samples (starting from 10 μM when determining antiviral activity or from 100 μM for determining cytotoxicity). As a negative control, 0.1% DMSO was used. The values of EC50 were calculated. The quality of the tests was determined using the following controls: signal-to-noise ratio, integrase inhibitor raltegravir (1 μM), and test reproducibility.

The nature of data set [2]: Thermodynamic (shake-flask) solubility. Format: physicochemical. The conditions noted are these: for solubility at 24 h: thermodynamic from solid. As for the experimental part: The test compound of general formula 1 or 2 (2 mg) was weighed into a glass vial. The pION universal buffer (0.5 ml) with pH 7.4 or deionized water was added to appropriate vials. The vials were tightly closed with a lid, placed on a rotating shaker, and incubated for 24 hours to balance the solution and the solid phase at the saturation point. Each resulting solution (200 μl) was taken (in duplicate) from the vials, placed in a 96-well MultiScreen Solubility Filter Plate (Millipore), and filtered using vacuum ([…]) into a polypropylene plate with a U-shaped bottom. If necessary, the filtrates were diluted with an appropriate buffer (water). Then, 120 μl of the filtarate (or a diluted filtrate) was transferred to a 96-well plate with a UV-transparent bottom and 60 μl/well of acetonitrile and 20 μl/well of DMSO were added and thoroughly mixed with a multichannel pipette (acetonitrile and DMSO were added to obtain a required composition of calibration standards, as described below). The optical density of the resulting solutions was measured on a multifunction Infinite 200 PRO plate reader in the wavelength range from 240 nm to 400 nm in steps of 10 nm. The value of ODλ for solutions was assessed at a wavelength chosen for plotting a calibration curve.
The concentration of a substance in the solution after the solubility test was evaluated using a calibration curve. A stock solution in DMSO with a concentration of 2 mg/ml was prepared from a separate sample. […] The range of final concentrations of the calibration curve was 0.2; 0.1; 0.05; 0.025; 0.0125; 0.00625, and 0 mg/ml. Calibration solutions were prepared in a 96-well UV plate as follows: 20 μl of a 10-fold stock solution in DMSO, 60 μl of acetonitrile, and 120 μl of the appropriate buffer were added to the well and stirred. The optical density of the resulting solutions was measured on a multifunction Infinite 200 PRO plate reader in the wavelength range from 240 nm to 400 nm with a step of 10 nm. The optimal wavelength typically corresponding to the absorption maximum was chosen, and a linear dependence of OD at a given wavelength on the concentration of the compound was obtained.
The concentration of the compound in the filtrate after the solubility test was calculated according to the formula:
shake-flask solubility=(ODλfiltrate−ODλblank)/(slope×1.67×filtrate dilution)
wherein slope means the slope of the calibration curve; 1.67 is the filtrate acetonitrile+DMSO dilution ratio; filtrate dilution is an additional dilution of the filtrate, if applicable.

Data set [3] is described as follows: Pharmacokinetics in rat plasma, IV and oral. Format: in vivo, male Sprague-Dawley rats. As for the experimental part: The research was carried out on male Sprague-Dawley rats obtained from Charles River Laboratories (Germany). […] The age of the animals at the time of administration was 8-10 weeks. The animals were pre-catheterized so that all blood samples during the study of each substance could be taken from the same animals. Each substance was tested in 3 animals at each route of administration. The solution of test substances with a concentration of 0.2 mg/ml in 10% DMSO/10% Solutol/80% 0.05M N-methylglucamine was administered to rats intravenously in the tail vein at a dose of 1 mg/kg. Blood samples were collected at 5, 15, 30 min, 1, 2, 4, 8, and 24 hours after administration. Intragastric administration involved gavage using a solution with a concentration of 0.5 mg/ml in 0.5% methylcellulose at a dose of 5 mg/kg. Blood samples were collected at 15, 30 min, 1, 2, 4, 8, and 24 hours after administration. Blood (0.2 ml) was collected in polypropylene tubes containing 20 μl of 5% NaEDTA. Blood plasma was separated by centrifugation at 1500×g for 10 min and stored until testing at a temperature of −80° C. A pure acetonitrile-water (1:1) mixture (5 μl) was added to 45 μl of test samples. The samples were vortexed thoroughly for 10 seconds. Tolbutamide (100 μl) chilled to +4° C. (200 ng/ml in MeCN) was added to the samples and the mixture was vortexed. The samples were precipitated on ice at +4° C. for 15 minutes and then centrifuged at 2700 g for 10 min at +4° C. Supernatants (100 μl each) were transferred to a blank plate for HPLC/MS/MS analysis. The HPLC/MS/MS analysis was performed using an Agilent 1290 Infinity system coupled to an AB Sciex QTrap 6500 mass spectrometer. Pharmacokinetic analysis of plasma concentration vs time data was performed by a model-independent method using the Phoenix™ WinNonlin® 6.3 software (Pharsight Corp.). […]

The mark [4] stands for this setting: aqueous buffer, pION universal buffer pH 7.4, 24 h, read-out: Solubility, pH 7.4, value.

As usually defined, the EC50 is the concentration at which the effect is half-maximal. Broadly, the solubility is the concentration that dissolves in the medium under given conditions. A word on the Cmax: it is the maximum level reached in the sampled fluid or tissue. The term Tmax denotes the time at which the peak concentration occurs.

For `C[C@H]1CO[C@@H]2Cn3cc(C(=O)NCc4ncc(F)cc4F)c(=O)c(O)c3C(=O)N12` [Compound 1.1.17, (3S,11aR)-6-hydroxy-N-[(3,5-difluoropyridin-2-yl)methyl]-3-methyl-5,7-dioxo-2,3,5,7,11,11a-hexahydro[1,3]oxazolo[3,2-a]pyrido[1,2-d]pyrazine-8-carboxamide], the EC50 in data set [1] was 1.5 nM. Further, the solubility at 24 h turned out to be 196 µg/mL (≈ 482 µM) in data set [2] (setting [4]) and 131 µg/mL (≈ 322 µM) in data set [2] (deionized water, 24 h, read-out: Solubility, water, value).
As to `C[C@H]1CO[C@@H]2Cn3cc(C(=O)NCc4ccc(F)nc4F)c(=O)c(O)c3C(=O)N12` [Compound 1.1.19, (3S,11aR)-6-hydroxy-N-[(2,6-difluoropyridin-3-yl)methyl]-3-methyl-5,7-dioxo-2,3,5,7,11,11a-hexahydro[1,3]oxazolo[3,2-a]pyrido[1,2-d]pyrazine-8-carboxamide], the EC50 in data set [1] worked out at 1.9 nM. In addition, in data set [2] (setting [4]), the solubility at 24 h is 232 µg/mL (≈ 571 µM). The “Solubility, water, value” in data set [2] (deionized water, 24 h) came to 269 µg/mL (≈ 662 µM). Also, the solubility at 24 h in data set [2] (deionized water, water, read-out: Solubility in water) was found to be 269 µg/mL (≈ 662 µM). Further, in data set [3] (male, Sprague-Dawley, rat plasma, oral 5 mg/kg, 8 h, read-out: C8 h), the concentration at 8 h was determined as 7910 ng/mL. In addition, the concentration at 24 h in data set [3] (male, Sprague-Dawley, rat plasma, oral 5 mg/kg, 24 h, read-out: C24 h) was found to be 4440 ng/mL. Also, in data set [3] (rat plasma, IV 1 mg/kg), the AUCINF was determined as 367.627 µg·h/mL, the AUClast was found to be 202.189 µg·h/mL, the Cmax stood at 18550 ng/mL and the MRTlast stood at 9.46 h. In addition, in data set [3] (rat plasma, IV 1 mg/kg), the T1/2 amounted to 21.2 h, the time to peak (Tmax) turned out to be 0.08 h and the kel stood at 0.03 h⁻¹. Moreover, in data set [3] (rat plasma, oral 5 mg/kg), the AUCINF was determined as 282.07 µg·h/mL, the AUClast came to 176.506 µg·h/mL, the Cmax was 11488 ng/mL and the MRTlast is 9.42 h. For the same molecule, in data set [3] (rat plasma, oral 5 mg/kg), the T1/2 came out at 16.5 h, the Tmax is listed as 3 h and the kel was determined as 0.04 h⁻¹. Further, in data set [3] (rat, oral 5 mg/kg vs IV 1 mg/kg, F=(AUClast PO/5·AUClast IV)·100), the “F (bioavailability)” value was found to be 17.5%.
